# Source: PubChem BioAssay AID2060491 (Molecular Pharmacology Branch, DTP, NCI, 2025)
# pIC50: −log10 of the molar value.
# Test system: 857933-349-R-J2-PDC complex spheroids, viability
# Assay: Anticancer human tumor 857933-349-R-J2-PDC patient-derived colon adenocarcinoma cell line growth inhibition [GQUAD]
# Conditions: for pIC50: curve of first compound; for viability, T/C: stronger effect = lower value
# Outline: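 Tumor cells were grown as complex spheroids with HUVEC endothelial cells and mesenchymal stem cells as stroma. G-quadruplex stabilizers were combined with targeted agents over half-log dilutions from near the clinical Cmax, or from 10 microM.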
# [1] = second compound 0.0316 µM, first compound 0.0316 µM
# [2] = second compound 0.0316 µM, first compound 0.1 µM
# [3] = second compound 0.0316 µM, first compound 0.316 µM
# [4] = second compound 0.0316 µM, first compound 1 µM
# [5] = second compound 0.0316 µM, first compound 3.16 µM
# [6] = second compound 0.0316 µM, first compound 10 µM
# [7] = second compound 0.1 µM, first compound 0.0316 µM
# [8] = second compound 0.1 µM, first compound 0.1 µM
# [9] = second compound 0.1 µM, first compound 0.316 µM
# [10] = second compound 0.1 µM, first compound 1 µM
# [11] = second compound 0.1 µM, first compound 3.16 µM
# [12] = second compound 0.1 µM, first compound 10 µM
# [13] = second compound 0.316 µM, first compound 0.0316 µM
# [14] = second compound 0.316 µM, first compound 0.1 µM
# [15] = second compound 0.316 µM, first compound 0.316 µM
# [16] = second compound 0.316 µM, first compound 1 µM
# [17] = second compound 0.316 µM, first compound 3.16 µM
# [18] = second compound 0.316 µM, first compound 10 µM
# [19] = second compound 1 µM, first compound 0.0316 µM
# [20] = second compound 1 µM, first compound 0.1 µM
# [21] = second compound 1 µM, first compound 0.316 µM
# [22] = second compound 1 µM, first compound 1 µM
# [23] = second compound 1 µM, first compound 3.16 µM
# [24] = second compound 1 µM, first compound 10 µM
# [25] = second compound 3.16 µM, first compound 0.0316 µM
# [26] = second compound 3.16 µM, first compound 0.1 µM
# [27] = second compound 3.16 µM, first compound 0.316 µM
# [28] = second compound 3.16 µM, first compound 1 µM
# [29] = second compound 3.16 µM, first compound 3.16 µM
# [30] = second compound 3.16 µM, first compound 10 µM
# [31] = second compound 10 µM, first compound 0.0316 µM
# [32] = second compound 10 µM, first compound 0.1 µM
# [33] = second compound 10 µM, first compound 0.316 µM
# [34] = second compound 10 µM, first compound 1 µM
# [35] = second compound 10 µM, first compound 3.16 µM
# [36] = second compound 10 µM, first compound 10 µM
# 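Note: spheroids exposed to compounds for one week before readout.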
# 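Throughout, for viability, T/C: percent viability relative to vehicle DMSO wells taken as 100%.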
structure (smiles),measurement,setting,value
CCCS(=O)(=O)Nc1ccc(F)c(C(=O)c2c[nH]c3ncc(-c4ccc(Cl)cc4)cc23)c1F + Cc1[nH]c2ccc(F)cc2c1-c1nc2c3cccnc3c3ncccc3c2[nH]1,pIC50,second compound 0.0316 µM,5.27
same,pIC50,second compound 0.1 µM,5.28
same,pIC50,second compound 0.316 µM,5.28
same,pIC50,second compound 1 µM,5.29
same,pIC50,second compound 3.16 µM,5.30
same,pIC50,second compound 10 µM,5.32
same,"viability, T/C",[1],101%
same,"viability, T/C",[2],98.1%
same,"viability, T/C",[3],94.7%
same,"viability, T/C",[4],115%
same,"viability, T/C",[5],89.8%
same,"viability, T/C",[6],4.88%
same,"viability, T/C",[7],97.8%
same,"viability, T/C",[8],97.7%
same,"viability, T/C",[9],102%
same,"viability, T/C",[10],105%
same,"viability, T/C",[11],85%
same,"viability, T/C",[12],4.75%
same,"viability, T/C",[13],97.8%
same,"viability, T/C",[14],97.5%
same,"viability, T/C",[15],96%
same,"viability, T/C",[16],94.3%
same,"viability, T/C",[17],84.4%
same,"viability, T/C",[18],5.8%
same,"viability, T/C",[19],97.1%
same,"viability, T/C",[20],85.1%
same,"viability, T/C",[21],90.2%
same,"viability, T/C",[22],82.8%
same,"viability, T/C",[23],81.1%
same,"viability, T/C",[24],6.53%
same,"viability, T/C",[25],84.4%
same,"viability, T/C",[26],74.2%
same,"viability, T/C",[27],79.1%
same,"viability, T/C",[28],74.2%
same,"viability, T/C",[29],82.9%
same,"viability, T/C",[30],6.5%
same,"viability, T/C",[31],82.7%
same,"viability, T/C",[32],85.2%
same,"viability, T/C",[33],80.5%
same,"viability, T/C",[34],84.5%
same,"viability, T/C",[35],73.7%
same,"viability, T/C",[36],6.22%
COc1cc(C2c3cc4c(cc3C(OC3OC5COC(C)OC5C(O)C3O)C3COC(=O)C23)OCO4)cc(OC)c1O (stereo unspecified) + CN(C)c1ccc(Nc2c3ccc(NC(=O)CCN4CCCC4)cc3nc3cc(NC(=O)CCN4CCCC4)ccc23)cc1,pIC50,second compound 0.0316 µM,5.21
same,pIC50,second compound 0.1 µM,5.18
same,pIC50,second compound 0.316 µM,5.24
same,pIC50,second compound 1 µM,5.22
same,pIC50,second compound 3.16 µM,5.24
same,pIC50,second compound 10 µM,5.24
same,"viability, T/C",[1],98.2%
same,"viability, T/C",[2],95.4%
same,"viability, T/C",[3],80.3%
same,"viability, T/C",[4],79.3%
same,"viability, T/C",[5],58.8%
same,"viability, T/C",[6],42.1%
same,"viability, T/C",[7],96.3%
same,"viability, T/C",[8],102%
same,"viability, T/C",[9],84.3%
same,"viability, T/C",[10],76.3%
same,"viability, T/C",[11],59.6%
same,"viability, T/C",[12],44.8%
same,"viability, T/C",[13],102%
same,"viability, T/C",[14],95.8%
same,"viability, T/C",[15],79.1%
same,"viability, T/C",[16],70.2%
same,"viability, T/C",[17],60.2%
same,"viability, T/C",[18],41.8%
same,"viability, T/C",[19],101%
same,"viability, T/C",[20],89.6%
same,"viability, T/C",[21],83.3%
same,"viability, T/C",[22],68.4%
same,"viability, T/C",[23],61.6%
same,"viability, T/C",[24],41.6%
same,"viability, T/C",[25],90.8%
same,"viability, T/C",[26],81.2%
same,"viability, T/C",[27],84.6%
same,"viability, T/C",[28],71.8%
same,"viability, T/C",[29],60.9%
same,"viability, T/C",[30],40.3%
same,"viability, T/C",[31],74.4%
same,"viability, T/C",[32],76.9%
same,"viability, T/C",[33],71%
same,"viability, T/C",[34],67%
same,"viability, T/C",[35],58.2%
same,"viability, T/C",[36],42.7%
CC[C@@]1(O)C(=O)OCc2c1cc1n(c2=O)Cc2cc3c(CN(C)C)c(O)ccc3nc2-1 + Cc1cnc(CNC(=O)c2c(=O)c3ccc(N4CCCN(C)CC4)nc3n3c2sc2ccccc23)cn1,pIC50,second compound 0.0316 µM,7.06
same,pIC50,second compound 0.1 µM,7.17
same,pIC50,second compound 0.316 µM,> 9.00
same,pIC50,second compound 1 µM,> 9.00
same,pIC50,second compound 3.16 µM,> 9.00
same,pIC50,second compound 10 µM,> 9.00
same,"viability, T/C","second compound 0.0316 µM, first compound 0.000999 µM",95.9%
same,"viability, T/C","second compound 0.0316 µM, first compound 0.00316 µM",96%
same,"viability, T/C","second compound 0.0316 µM, first compound 0.00999 µM",81.6%
same,"viability, T/C",[1],59.7%
same,"viability, T/C","second compound 0.0316 µM, first compound 0.0999 µM",53.1%
same,"viability, T/C",[3],32.2%
same,"viability, T/C","second compound 0.1 µM, first compound 0.000999 µM",58.2%
same,"viability, T/C","second compound 0.1 µM, first compound 0.00316 µM",65.6%
same,"viability, T/C","second compound 0.1 µM, first compound 0.00999 µM",61.4%
same,"viability, T/C",[7],60.3%
same,"viability, T/C","second compound 0.1 µM, first compound 0.0999 µM",44.8%
same,"viability, T/C",[9],19.6%
same,"viability, T/C","second compound 0.316 µM, first compound 0.000999 µM",23.6%
same,"viability, T/C","second compound 0.316 µM, first compound 0.00316 µM",20.7%
same,"viability, T/C","second compound 0.316 µM, first compound 0.00999 µM",18.6%
same,"viability, T/C",[13],22%
same,"viability, T/C","second compound 0.316 µM, first compound 0.0999 µM",14%
same,"viability, T/C",[15],5.04%
same,"viability, T/C","second compound 1 µM, first compound 0.000999 µM",4.85%
same,"viability, T/C","second compound 1 µM, first compound 0.00316 µM",5.23%
same,"viability, T/C","second compound 1 µM, first compound 0.00999 µM",4.03%
same,"viability, T/C",[19],3.48%
same,"viability, T/C","second compound 1 µM, first compound 0.0999 µM",2.83%
same,"viability, T/C",[21],2.11%
same,"viability, T/C","second compound 3.16 µM, first compound 0.000999 µM",2.58%
same,"viability, T/C","second compound 3.16 µM, first compound 0.00316 µM",2.92%
same,"viability, T/C","second compound 3.16 µM, first compound 0.00999 µM",2.38%
same,"viability, T/C",[25],2.13%
same,"viability, T/C","second compound 3.16 µM, first compound 0.0999 µM",1.91%
same,"viability, T/C",[27],1.66%
same,"viability, T/C","second compound 10 µM, first compound 0.000999 µM",1.38%
same,"viability, T/C","second compound 10 µM, first compound 0.00316 µM",1.91%
same,"viability, T/C","second compound 10 µM, first compound 0.00999 µM",1.93%
same,"viability, T/C",[31],2.78%
same,"viability, T/C","second compound 10 µM, first compound 0.0999 µM",0.44%
same,"viability, T/C",[33],0.24%
